Measured values from patent US4988814A, “Tertiary alkyl functionalized piperazine derivatives” (American Home Products Corp., priority 1989, dated 1991).

Experiments:
[1] = molecular target: T1, 5-HT1A serotonin receptor (Rattus norvegicus, UniProt P19327); experiment: 5-HT1A receptor binding, displacement of [^3 H] 8-OH DPAT (Hall et al.); conditions: for inhibition at 0.1 µM / inhibition at 1 µM: read-out: Affinity for 5HT1A Receptor % Inhibition; for IC50: read-out: Affinity for 5HT1A Receptor IC50
T1 construct: 44: 1685-1696, 1985; from tissue
T1 sequence (P19327 1-422): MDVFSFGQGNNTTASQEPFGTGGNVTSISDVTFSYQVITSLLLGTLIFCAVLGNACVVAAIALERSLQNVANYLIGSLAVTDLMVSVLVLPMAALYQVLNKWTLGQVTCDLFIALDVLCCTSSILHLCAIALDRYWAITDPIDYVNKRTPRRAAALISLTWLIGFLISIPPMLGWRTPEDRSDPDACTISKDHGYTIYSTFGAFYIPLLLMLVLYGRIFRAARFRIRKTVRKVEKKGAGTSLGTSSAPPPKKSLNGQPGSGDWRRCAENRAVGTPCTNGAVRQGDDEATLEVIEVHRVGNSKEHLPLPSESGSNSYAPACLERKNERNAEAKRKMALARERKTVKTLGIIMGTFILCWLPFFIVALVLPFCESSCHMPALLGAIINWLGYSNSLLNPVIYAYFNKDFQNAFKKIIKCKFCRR
Excerpt: 8-OH DPAT (dipropylaminotetralin) from the 5-HT1A serotonin receptor by the procedure of Hall et al., J. Neurochem.

[2] = molecular target: T2, D2 dopamine receptor (Rattus norvegicus, UniProt P61169); experiment: D2 dopamine receptor binding, limbic brain tissue incubated with ^3 H-spiroperiodol; conditions: for inhibition at 1 µM: read-out: Affinity for D2 Receptor % Inhibition
T2 construct: from tissue; host or cells: homogenized limbic brain tissue
Method: The D2 dopamine receptor binding study was in accordance with a modification of the procedure of Field et al., Brain Res., 136, pp. 578-584 (1977) and Yamamura et al., eds., Neurotransmitter Receptor Binding, Raven Press, N.Y. (1978), wherein homogenized limbic brain tissue is incubated with ^3 H-spiroperiodol and various concentrations of test compounds, filtered and washed and shaken with Hydrofluoro scintillation cocktail (National Diagnostics) and counted in a Packard 460CD scintillation counter.

[3] = system: 5-HT1A receptor; conditions: prior art; cited from earlier work
[4] = system: D2 receptor; conditions: prior art; cited from earlier work

T2 sequence (P61169 whole entry): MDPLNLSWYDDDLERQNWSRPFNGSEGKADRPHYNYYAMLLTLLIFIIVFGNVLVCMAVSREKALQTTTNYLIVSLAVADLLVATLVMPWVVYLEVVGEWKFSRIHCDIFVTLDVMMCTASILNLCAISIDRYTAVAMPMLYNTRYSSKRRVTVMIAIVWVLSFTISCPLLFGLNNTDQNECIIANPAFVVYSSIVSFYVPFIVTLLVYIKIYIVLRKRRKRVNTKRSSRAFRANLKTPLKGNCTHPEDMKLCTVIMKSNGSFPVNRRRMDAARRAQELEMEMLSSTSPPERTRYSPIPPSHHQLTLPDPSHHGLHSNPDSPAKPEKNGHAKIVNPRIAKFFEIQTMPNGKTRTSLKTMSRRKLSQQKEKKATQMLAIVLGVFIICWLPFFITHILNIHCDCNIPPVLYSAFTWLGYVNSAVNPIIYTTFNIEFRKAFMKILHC

Row | Structure (SMILES) | inhibition at 0.1 µM [1] [%] | inhibition at 1 µM [1] [%] | other results
1 | COc1ccccc1N1CCN(CCCCNC(=O)NC(C)(C)C)CC1 [Example 1, N-(1,1-Dimethylethyl)-N^1-[4-[4-(2-methoxyphenyl)-1-piperazinyl]butyl]urea] | 91 |  | 
2 | COc1ccccc1N1CCN(CCCCNC(=O)C(C)(C)C)CC1 [Example 2, N-[4-[4-(2-Methoxyphenyl)-1-piperazinyl]butyl]-2,2-dimethylpropanamide] | 100 |  | 
3 | COc1ccccc1N1CCN(CCOC(=O)C(C)(C)C)CC1 [Example 3, 2,2-Dimethylpropanoic acid 2-[4-(2-methoxyphenyl)-1-piperazinyl]ethyl ester] |  | 86 | inhibition at 1 µM [2]: 89%
4 | COc1ccccc1N1CCN(CCCOC(=O)C(C)(C)C)CC1 [Example 4, 2,2-Dimethylpropanoic acid 3-[4-(2-methoxyphenyl)-1-piperazinyl]propyl ester] |  | 98 | inhibition at 1 µM [2]: 99%
5 | CC(C)(C)C(=O)OCCCN1CCN(c2ccccc2Cl)CC1 [Example 5, 2,2-Dimethylpropanoic acid 3-[4-(2-chlorophenyl)-1-piperazinyl]propyl ester] |  | 98 | inhibition at 1 µM [2]: 58%
6 | COc1ccccc1N1CCN(CC(C(=O)OC(C)(C)C)c2ccccc2)CC1 (centres unmarked) [Example 12, Tertiary-butyl 3-[1-[4-(2-methoxyphenyl)piperazinyl]]-2-phenylpropanoate] | 86 | 98 | IC50 [1]: 11.8 nM
7 | COc1ccccc1N1CCN(CC(C(=O)NC(C)(C)C)c2ccccc2)CC1 (centres unmarked) [Example 13, N-Tertiary-butyl 3-[4-(2-methoxyphenyl)piperazinyl]-2-phenylpropanamide] |  |  | IC50 ([2]; read-out: Affinity for D2 Receptor IC50): 1740 nM
8 | COc1ccccc1N1CCN(CCNC(=O)C2(C)CCCCC2)CC1 [Example 15, N-[2-[4-(2-Methoxyphenyl)-1-piperazinyl)ethyl]-1-methylcyclohexanecarboxamide] | 98 |  | 
9 | COc1ccccc1N1CCN(CCNC(=O)NC2(C)CCCCC2)CC1 [Example 18, N-[2-[4-(2-Methoxyphenyl)-1-piperazinyl]ethyl]-N'-(1-methylcyclohexyl)urea] | 85 |  | 
10 | CC1(C(=O)NCCN2CCN(c3ncccn3)CC2)CCCCC1 [Example 19, N-2-(4-(2-Pyrimidinyl)-1-piperazinyl)ethyl-1-methylcyclohexylcarboxamide] | 67 |  | 
11 | COc1ccccc1N1CCN(C[C@@H](C)NC(=O)C2(C)CCCCC2)CC1 [Example 20, (R)-N-[2-[4-(2-Methoxyphenyl)-1-piperazinyl]-1-methylethyl]-1-methylcyclohexane carboxamide] | 100 |  | 
12 | COc1ccccc1N1CCN(CC(OC(=O)C(C)(C)C)c2ccccc2)CC1 (centres unmarked) [Example 23, 2,2-Dimethylpropanoic acid 2-(4-(2-methoxyphenyl)-piperazin-1-yl)-1-phenylethyl ester] | 27 | 78 | IC50 [1]: 270 nM
13 | COc1ccccc1N1CCN(CC(OC(=O)NC(C)(C)C)c2ccccc2)CC1 (centres unmarked) [Example 24] | 73 | 97 | IC50 [1]: 20 nM
14 | COc1ccccc1N1CCN(CC(C(=O)NNC(C)(C)C)c2ccccc2)CC1 (centres unmarked) [Example 26, N-Tert-butyl-3-[1-[4-(2-methoxy)phenyl]piperazinyl]-2-phenyl-propionhydrazide] | 48 | 96 | IC50 [1]: 118 nM
15 | O=C1CC2(CCCC2)CC(=O)N1CCCCN1CCN(c2ncccn2)CC1 [buspirone, reference compound] |  |  | 5-HT1A receptor affinity/binding (in words) [1]: potent affinity; 5-HT1A receptor affinity/activity (in words) [3]: selective activity
16 | CCCCN1C(=O)C2C(=O)N(CCCCN3CCN(c4ccccc4OC)CC3)C(=O)C(C1=O)C2(C)C [umespirone] |  |  | 5-HT1A receptor affinity/activity (in words) [3]: high affinity; D2 receptor affinity (in words) [4]: high affinity
